Data from patent US20260250251A1, “HETEROCYCLIC COMPOUNDS AS PI3Ka INHIBITORS” (Pikavation Therapeutics, Inc., priority 2022, published 2026).

How the values were obtained:
[1] = test system: T47D (PIK3CA H1047R) cells, pSer473 AKT; assay: pS473 AKT assay in T47D cells; type: cell-based; conditions: Homo sapiens, treated 2 h, read-out: T47D_IC50
Experimental: (§1) SKBR3 (PIK3CA WT), MCF7 (PIK3CA E545K), and T47D (PIK3CA H1047R) cells were cultured using 10-cm petri dishes with recommended medium. One day before the assay, cells were seeded in 96-well plates. After overnight incubation, cells were treated with different concentrations of PI3Kα inhibitors for 2 h. Cells were then fixed using 4% paraformaldehyde at room temperature for 20 min. Cells were aspirated with 4% paraformaldehyde, and washed using 1× regular phosphate buffered saline 3 times, 5 min each. Any residual phosphate buffered saline was aspirated and cells were blocked using 10% goat serum containing 1% bovine serum albumin and 0.3% Triton X-100 at room temperature for 1 h. Without any additional washing, primary antibodies (rabbit anti-pSer473 AKT) were diluted using blocking buffer and added at a final volume of 50 microliter per well. Assay plates with primary antibodies were maintained overnight at 4° C. Cells were washed using 1× regular phosphate buffered saline 3 times, 5 min each. After the final wash, cells were incubated with horseradish peroxidase-conjugated secondary antibodies (goat Anti-rabbit IgG) and diluted using the same blocking buffer at room temperature for 1 h. Cells were then washed thoroughly using 1× regular phosphate buffered saline 3 times, 5 min each, and any residual phosphate buffered saline was aspirated. Super-Signal ELISA Pico Chemiluminescent Substrate was then added at a final volume of 100 microliter per well. Plates were read on a i3x Multi-Mode Microplate Reader and IC50 values calculated using GraphPad Prism software.
(§2) Results of the assay described above are presented in Table A. “++++” indicates an IC50 less than 1000 nM; “+++” indicates an IC50 greater than or equal to 1000 nM but less than 5000 nM; “++” indicates an IC50 greater than or equal to 5000 nM but less than 10000 nM; and “+” indicates an IC50 greater than or equal to 10000 nM.

[2] = test system: SKBR3 (PIK3CA WT) cells, pSer473 AKT; assay: pS473 AKT assay in SKBR3 cells; type: cell-based; conditions: Homo sapiens, SK-BR-3, treated 2 h, read-out: SKBR3_IC50
Experimental: as §1, §2

Row | IC50 [1] | IC50 [2] | SMILES
1 | < 1000 nM | 1000 to 5000 nM | Cn1nc(N)c2c(Oc3cc(F)ccc3Cl)c(NC(=O)c3cc(F)cc(C(F)(F)F)c3)cc(C#CC3CC3)c21 [Example 42, N-(3-Amino-4-(2-chloro-5-fluorophenoxy)-7-(cyclopropylethynyl)-1-methyl-1H-indazol-5-yl)-3-fluoro-5-(trifluoromethyl)benzamide]
2 | < 1000 nM | 1000 to 5000 nM | C#Cc1cc(NC(=O)c2cc(F)cc(C(F)(F)F)c2)c(Oc2cc(F)ccc2Cl)c2c(N)nn(C)c12 [Example 47, N-(3-Amino-4-(2-chloro-5-fluorophenoxy)-7-ethynyl-1-methyl-1H-indazol-5-yl)-3-fluoro-5-(trifluoromethyl)benzamide]
3 | < 1000 nM | 1000 to 5000 nM | N#CCCn1nc(N)c2c(Oc3cc(F)ccc3Cl)c(NC(=O)c3cc(F)cc(C(F)(F)F)c3)cc(Cl)c21 [Example 34, N-(3-Amino-7-chloro-4-(2-chloro-5-fluorophenoxy)-1-(2-cyanoethyl)-1H-indazol-5-yl)-3-fluoro-5-(trifluoromethyl)benzamide]
4 | < 1000 nM | ≥ 10000 nM | CNc1nn(C)c2c(Cl)cc(NC(=O)c3cc(F)cc(C(F)(F)F)c3)c(Oc3cc(F)ccc3Cl)c12 [Example 53, N-(7-chloro-4-(2-chloro-5-fluorophenoxy)-1-methyl-3-(methylamino)-1H-indazol-5-yl)-3-fluoro-5-(trifluoromethyl)benzamide]
5 | < 1000 nM | < 1000 nM | Cn1nc(N)c2c(Oc3cc(F)ccc3Cl)c(NC(=O)c3cc(F)cc(C(F)(F)F)c3)cc(C#CCO)c21 [Example 49, N-(3-Amino-4-(2-chloro-5-fluorophenoxy)-7-(3-hydroxyprop-1-yn-1-yl)-1-methyl-1H-indazol-5-yl)-3-fluoro-5-(trifluoromethyl)benzamide]
6 | < 1000 nM | 1000 to 5000 nM | CNC(=O)N1CCCCC1C#Cc1cc(NC(=O)c2cc(F)cc(C(F)(F)F)c2)c(Oc2cc(F)ccc2Cl)c2c(N)nn(C)c12 (stereo not drawn) [Example 80, 2-((3-Amino-4-(2-chloro-5-fluorophenoxy)-5-(3-fluoro-5-(trifluoromethyl)benzamido)-1-methyl-1H-indazol-7-yl)ethynyl)-N-methylpiperidine-1-carboxamide]
7 | < 1000 nM | < 1000 nM | Nc1nn2c(=O)c3c(c4cc(NC(=O)c5cc(F)cc(C(F)(F)F)c5)c(Oc5cc(F)ccc5Cl)c1c42)CCCC3 [Example 75, N-(4-Amino-3-(2-chloro-5-fluorophenoxy)-7-oxo-8,9,10,11-tetrahydro-7H-pyrazolo[4,5,1-de]phenanthridin-2-yl)-3-fluoro-5-(trifluoromethyl)benzamide]
8 | < 1000 nM | < 1000 nM | Nc1nn2c3c(cc(NC(=O)c4cc(F)cc(C(F)(F)F)c4)c(Oc4cc(F)ccc4Cl)c13)CN(C1CC1)C2=O [Example 71, N-(2-Amino-3-(2-chloro-5-fluorophenoxy)-7-cyclopropyl-8-oxo-7,8-dihydro-6H-pyrazolo[4,5,1-ij]quinazolin-4-yl)-3-fluoro-5-(trifluoromethyl)benzamide]
9 | < 1000 nM | < 1000 nM | Nc1n[nH]c2c(CO)cc(NC(=O)c3cc(F)cc(C(F)(F)F)c3)c(Oc3cc(F)ccc3Cl)c12 [Example 23, N-(3-Amino-4-(2-chloro-5-fluorophenoxy)-7-(hydroxymethyl)-1H-indazol-5-yl)-3-fluoro-5-(trifluoromethyl)benzamide]
10 | < 1000 nM | 1000 to 5000 nM | Nc1nn(CCN2CCC2)c2c(Cl)cc(NC(=O)c3cc(F)cc(C(F)(F)F)c3)c(Oc3cc(F)ccc3Cl)c12 [Example 56, N-(3-Amino-1-(2-(azetidin-1-yl)ethyl)-7-chloro-4-(2-chloro-5-fluorophenoxy)-1H-indazol-5-yl)-3-fluoro-5-(trifluoromethyl)benzamide]
11 | < 1000 nM | < 1000 nM | Cn1nncc1-c1cc(NC(=O)c2cc(F)cc(C(F)(F)F)c2)c(Oc2cc(F)ccc2Cl)c2c(N)nn(C)c12 [Example 30, N-(3-Amino-4-(2-chloro-5-fluorophenoxy)-1-methyl-7-(1-methyl-1H-1,2,3-triazol-5-yl)-1H-indazol-5-yl)-3-fluoro-5-(trifluoromethyl)benzamide]
12 | < 1000 nM | < 1000 nM | Nc1nn2c3c(cc(NC(=O)c4cc(F)cc(C(F)(F)F)c4)c(Oc4cc(F)ccc4Cl)c13)CNC2=O [Example 68, N-(2-Amino-3-(2-chloro-5-fluorophenoxy)-8-oxo-7,8-dihydro-6H-pyrazolo[4,5,1-ij]quinazolin-4-yl)-3-fluoro-5-(trifluoromethyl)benzamide]
13 | < 1000 nM | 1000 to 5000 nM | CC(=O)N1CCC(C#Cc2cc(NC(=O)c3cc(F)cc(C(F)(F)F)c3)c(Oc3cc(F)ccc3Cl)c3c(N)nn(C)c23)CC1 [Example 52, N-(7-((1-Acetylpiperidin-4-yl)ethynyl)-3-amino-4-(2-chloro-5-fluorophenoxy)-1-methyl-1H-indazol-5-yl)-3-fluoro-5-(trifluoromethyl)benzamide]
14 | < 1000 nM | < 1000 nM | Cn1nc(N)c2c(Oc3cc(F)ccc3Cl)c(NC(=O)c3cc(F)cc(C(F)(F)F)c3)cc(CC#N)c21 [Example 31, N-(3-Amino-4-(2-chloro-5-fluorophenoxy)-7-(cyanomethyl)-1-methyl-1H-indazol-5-yl)-3-fluoro-5-(trifluoromethyl)benzamide]
15 | < 1000 nM | < 1000 nM | Cn1nc(N)c2c(Oc3cc(F)ccc3Cl)c(NC(=O)c3cc(F)cc(C(F)(F)F)c3)cc(C#CC3(O)CC3)c21 [Example 43, N-(3-Amino-4-(2-chloro-5-fluorophenoxy)-7-((1-hydroxycyclopropyl)ethynyl)-1-methyl-1H-indazol-5-yl)-3-fluoro-5-(trifluoromethyl)benzamide]
16 | < 1000 nM | < 1000 nM | Cn1nc(N)c2c(Oc3cc(F)ccc3Cl)c(NC(=O)c3cc(F)cc(C(F)(F)F)c3)cc(Br)c21 [Example 25, N-(3-Amino-7-bromo-4-(2-chloro-5-fluorophenoxy)-1-methyl-1H-indazol-5-yl)-3-fluoro-5-(trifluoromethyl)benzamide]
17 | < 1000 nM | 5000 to 10000 nM | Nc1n[nH]c2ccc(NC(=O)c3cc(F)cc(C(F)(F)F)c3)c(Nc3cc(F)ccc3Cl)c12 [Example 4, N-(3-Amino-4-((2-chloro-5-fluorophenyl)amino)-1H-indazol-5-yl)-3-fluoro-5-(trifluoromethyl)benzamide]
18 | < 1000 nM | 1000 to 5000 nM | CC(=O)N1CCCCC1C#Cc1cc(NC(=O)c2cc(F)cc(C(F)(F)F)c2)c(Oc2cc(F)ccc2Cl)c2c(N)nn(C)c12 (stereo not drawn) [Example 79, N-(7-((1-Acetylpiperidin-2-yl)ethynyl)-3-amino-4-(2-chloro-5-fluorophenoxy)-1-methyl-1H-indazol-5-yl)-3-fluoro-5-(trifluoromethyl)benzamide]
19 | 1000 to 5000 nM | ≥ 10000 nM | Nc1n[nH]c2ccc(NC(=O)c3cc(F)cc(C(F)(F)F)c3)c(COc3cc(F)ccc3Cl)c12 [Example 6, N-(3-amino-4-((2-chloro-5-fluorophenoxy)methyl)-1H-indazol-5-yl)-3-fluoro-5-(trifluoromethyl)benzamide]
20 | < 1000 nM | < 1000 nM | Cn1nc(N)c2c(Oc3cc(F)ccc3Cl)c(NC(=O)c3cc(F)cc(C(F)(F)F)c3)cc(C#CC3(N)CC3)c21 [Example 45, N-(3-Amino-7-((1-aminocyclopropyl)ethynyl)-4-(2-chloro-5-fluorophenoxy)-1-methyl-1H-indazol-5-yl)-3-fluoro-5-(trifluoromethyl)benzamide]
21 | < 1000 nM | < 1000 nM | Cn1nc(N)c2c(Oc3cc(F)ccc3Cl)c(NC(=O)c3cc(F)cc(C(F)(F)F)c3)cc(C#CC(C)(C)N)c21 [Example 40, N-(3-Amino-7-(3-amino-3-methylbut-1-yn-1-yl)-4-(2-chloro-5-fluorophenoxy)-1-methyl-1H-indazol-5-yl)-3-fluoro-5-(trifluoromethyl)benzamide]
22 | < 1000 nM | < 1000 nM | Cn1nccc1-c1cc(NC(=O)c2cc(F)cc(C(F)(F)F)c2)c(Oc2cc(F)ccc2Cl)c2c(N)n[nH]c12 [Example 15, N-(3-Amino-4-(2-chloro-5-fluorophenoxy)-7-(1-methyl-1H-pyrazol-5-yl)-1H-indazol-5-yl)-3-fluoro-5-(trifluoromethyl)benzamide]
23 | < 1000 nM | 1000 to 5000 nM | CC(=O)n1nc(N)c2c(Oc3cc(F)ccc3Cl)c(NC(=O)c3cc(F)cc(C(F)(F)F)c3)cc(Br)c21 [Example 82, N-(1-Acetyl-3-amino-7-bromo-4-(2-chloro-5-fluorophenoxy)-1H-indazol-5-yl)-3-fluoro-5-(trifluoromethyl)benzamide]
24 | < 1000 nM | 1000 to 5000 nM | Cn1nc(N)c2c(Oc3cc(F)ccc3Cl)c(NC(=O)c3cc(F)cc(C(F)(F)F)c3)cc(-c3ccc(C(N)=O)cc3)c21 [Example 27, N-(3-Amino-7-(4-carbamoylphenyl)-4-(2-chloro-5-fluorophenoxy)-1-methyl-1H-indazol-5-yl)-3-fluoro-5-(trifluoromethyl)benzamide]
